# Patent publication US8372854B2, “Pyrrolo[2,3-D]pyrimidine compounds” (Pfizer Inc., priority 2009, dated 2013)
# Tests used:
# Type in all cases: biochemical
# [1] = target: T1, JAK3 (Homo sapiens, UniProt P52333); test: JAK enzymatic assay (peptide mobility shift), JAK3; conditions: recombinant JAK3 1 nM, ATP 4 μM, 1 μM JAKtide peptide, 90 minutes
# T1 construct: purchased Invitrogen Corporation, Madison, Wis; PV3855
# T1 sequence (P52333 1-1124): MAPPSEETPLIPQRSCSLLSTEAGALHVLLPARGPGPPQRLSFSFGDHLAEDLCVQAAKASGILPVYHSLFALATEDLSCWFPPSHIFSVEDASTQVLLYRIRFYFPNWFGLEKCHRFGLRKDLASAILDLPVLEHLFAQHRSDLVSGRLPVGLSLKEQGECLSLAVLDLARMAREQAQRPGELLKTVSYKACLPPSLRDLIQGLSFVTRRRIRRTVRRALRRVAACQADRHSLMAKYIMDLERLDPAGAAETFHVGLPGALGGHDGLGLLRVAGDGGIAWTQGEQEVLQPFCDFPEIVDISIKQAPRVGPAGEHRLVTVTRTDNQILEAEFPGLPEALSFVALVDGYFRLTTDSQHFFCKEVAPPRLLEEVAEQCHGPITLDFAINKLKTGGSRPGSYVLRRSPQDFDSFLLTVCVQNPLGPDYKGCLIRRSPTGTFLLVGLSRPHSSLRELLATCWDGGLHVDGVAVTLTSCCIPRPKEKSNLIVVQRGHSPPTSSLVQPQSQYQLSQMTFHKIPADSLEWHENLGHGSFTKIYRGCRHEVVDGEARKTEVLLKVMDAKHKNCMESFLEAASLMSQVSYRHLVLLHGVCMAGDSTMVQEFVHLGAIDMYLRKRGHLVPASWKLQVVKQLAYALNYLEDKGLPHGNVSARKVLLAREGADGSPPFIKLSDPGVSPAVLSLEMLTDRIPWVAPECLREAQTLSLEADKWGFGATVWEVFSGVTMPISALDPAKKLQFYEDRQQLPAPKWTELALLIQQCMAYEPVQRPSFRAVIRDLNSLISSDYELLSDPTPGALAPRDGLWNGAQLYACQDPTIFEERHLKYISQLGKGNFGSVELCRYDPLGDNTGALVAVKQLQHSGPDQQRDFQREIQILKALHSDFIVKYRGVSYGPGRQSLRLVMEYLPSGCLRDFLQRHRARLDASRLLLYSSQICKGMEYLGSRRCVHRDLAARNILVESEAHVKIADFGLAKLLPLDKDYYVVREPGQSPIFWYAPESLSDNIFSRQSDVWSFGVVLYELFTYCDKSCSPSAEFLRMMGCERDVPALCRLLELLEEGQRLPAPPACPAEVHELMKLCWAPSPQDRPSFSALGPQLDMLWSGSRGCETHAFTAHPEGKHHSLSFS
# [2] = target: T2, JAK2 (Homo sapiens, UniProt O60674); test: JAK enzymatic assay (peptide mobility shift), JAK2; conditions: recombinant JAK2 2 nM, ATP 4 μM, 1 μM JAKtide peptide, 150 minutes
# T2 construct: purchased Invitrogen Corporation, Madison, Wis; PV4210
# T2 sequence (O60674 whole entry): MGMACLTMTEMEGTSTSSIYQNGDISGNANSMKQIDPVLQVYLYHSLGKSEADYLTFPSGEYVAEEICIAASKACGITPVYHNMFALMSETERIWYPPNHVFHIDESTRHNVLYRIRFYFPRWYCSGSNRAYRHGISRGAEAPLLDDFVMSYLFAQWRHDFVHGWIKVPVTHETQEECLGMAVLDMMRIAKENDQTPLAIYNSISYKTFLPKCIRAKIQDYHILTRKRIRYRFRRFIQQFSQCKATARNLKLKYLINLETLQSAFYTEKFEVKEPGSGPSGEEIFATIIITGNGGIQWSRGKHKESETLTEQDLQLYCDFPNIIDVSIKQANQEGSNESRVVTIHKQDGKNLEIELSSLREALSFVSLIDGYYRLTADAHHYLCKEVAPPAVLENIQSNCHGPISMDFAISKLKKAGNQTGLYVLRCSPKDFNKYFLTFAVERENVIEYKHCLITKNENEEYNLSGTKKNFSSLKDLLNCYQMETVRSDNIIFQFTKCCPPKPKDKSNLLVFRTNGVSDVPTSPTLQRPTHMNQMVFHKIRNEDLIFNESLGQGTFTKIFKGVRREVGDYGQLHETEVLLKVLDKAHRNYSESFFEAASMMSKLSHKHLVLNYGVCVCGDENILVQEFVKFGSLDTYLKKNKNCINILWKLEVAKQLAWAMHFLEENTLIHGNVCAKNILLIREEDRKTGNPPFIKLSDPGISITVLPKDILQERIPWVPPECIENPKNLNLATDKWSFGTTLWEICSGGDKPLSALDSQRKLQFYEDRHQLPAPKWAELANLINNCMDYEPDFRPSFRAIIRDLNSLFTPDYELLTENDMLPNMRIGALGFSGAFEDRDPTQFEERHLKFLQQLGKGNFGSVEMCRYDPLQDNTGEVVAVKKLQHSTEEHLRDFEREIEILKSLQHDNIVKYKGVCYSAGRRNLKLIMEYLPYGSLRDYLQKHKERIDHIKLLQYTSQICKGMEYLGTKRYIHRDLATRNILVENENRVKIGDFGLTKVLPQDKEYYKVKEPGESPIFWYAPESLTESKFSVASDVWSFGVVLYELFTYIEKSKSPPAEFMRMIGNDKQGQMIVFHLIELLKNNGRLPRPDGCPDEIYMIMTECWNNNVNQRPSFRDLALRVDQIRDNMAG
# How it was run: (§1)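 Caliper mobility-shift assay of peptide phosphorylation (1 μM peptide) in pH 7.4 HEPES with MgCl2, BSA, Tween-20 and 2% DMSO. JAK1 used 20 nM enzyme, 40 μM ATP, IRS-1 peptide, 240 min; JAK2 used 2 nM, 4 μM ATP, JAKtide, 150 min; JAK3 used 1 nM, 4 μM ATP, JAKtide, 90 min. IC50s came from 11-point 4-parameter fits.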
# [3] = target: T3, JAK1 (Homo sapiens, UniProt P23458); test: JAK enzymatic assay (peptide mobility shift), JAK1; conditions: recombinant JAK1 20 nM, ATP 40 μM, 1 μM IRS-1 peptide, 240 minutes
# T3 construct: purchased Invitrogen Corporation, Madison, Wis; PV4775
# T3 sequence (P23458 whole entry): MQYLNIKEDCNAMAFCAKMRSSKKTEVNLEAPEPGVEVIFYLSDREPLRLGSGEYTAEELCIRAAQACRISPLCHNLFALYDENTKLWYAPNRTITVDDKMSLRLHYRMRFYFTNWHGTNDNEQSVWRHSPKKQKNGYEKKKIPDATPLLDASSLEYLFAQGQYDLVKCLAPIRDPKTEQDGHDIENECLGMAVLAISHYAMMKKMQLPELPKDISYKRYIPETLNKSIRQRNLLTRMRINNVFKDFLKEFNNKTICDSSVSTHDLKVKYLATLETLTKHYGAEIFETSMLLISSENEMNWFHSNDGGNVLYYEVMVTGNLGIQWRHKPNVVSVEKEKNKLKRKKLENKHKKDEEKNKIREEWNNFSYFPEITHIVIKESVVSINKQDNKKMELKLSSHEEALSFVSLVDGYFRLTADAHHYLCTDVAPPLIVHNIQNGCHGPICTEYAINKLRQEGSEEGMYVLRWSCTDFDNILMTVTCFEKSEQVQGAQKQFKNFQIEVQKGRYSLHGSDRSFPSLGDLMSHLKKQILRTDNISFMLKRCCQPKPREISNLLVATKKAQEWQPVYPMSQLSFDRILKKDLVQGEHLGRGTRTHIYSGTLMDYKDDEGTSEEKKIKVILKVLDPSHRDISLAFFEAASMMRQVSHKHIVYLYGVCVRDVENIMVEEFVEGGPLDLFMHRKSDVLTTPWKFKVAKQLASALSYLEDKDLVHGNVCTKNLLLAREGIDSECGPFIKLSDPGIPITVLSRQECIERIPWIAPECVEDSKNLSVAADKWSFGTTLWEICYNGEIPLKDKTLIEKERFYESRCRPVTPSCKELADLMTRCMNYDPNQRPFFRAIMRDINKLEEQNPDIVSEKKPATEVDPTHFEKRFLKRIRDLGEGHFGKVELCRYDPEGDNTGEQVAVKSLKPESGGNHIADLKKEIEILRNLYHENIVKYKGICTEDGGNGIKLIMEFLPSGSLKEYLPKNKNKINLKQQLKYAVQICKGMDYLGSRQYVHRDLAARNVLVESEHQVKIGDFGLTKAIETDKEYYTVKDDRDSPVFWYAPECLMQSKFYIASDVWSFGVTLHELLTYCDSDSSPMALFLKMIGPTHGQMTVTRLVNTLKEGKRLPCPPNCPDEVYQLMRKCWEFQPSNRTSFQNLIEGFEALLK
# How it was run: as §1
Structure (SMILES),IC50 [1] [nM],IC50 [2] [nM],IC50 [3] [nM]
"CN(CCO)S(=O)(=O)C[C@H]1CC[C@H](N(C)c2ncnc3[nH]ccc23)CC1 [Example 17, N-(2-hydroxyethyl)-N-methyl-1-{trans-4-[methyl-(7H-pyrrolo[2,3-d]pyrimidin-4-yl)amino]cyclohexyl}-methanesulfonamide]",332,44.2,16.3
"Cc1ccc(NS(=O)(=O)C[C@H]2CC[C@H](N(C)c3ncnc4[nH]ccc34)CC2)cn1 [Example 30, N-(6-methylpyridin-3-yl)-1-{trans-4-[methyl(7H-pyrrolo[2,3-d]pyrimidin-4-yl)amino]cyclohexyl}-methanesulfonamide]",221,47.6,16.5
"CN(c1ncnc2[nH]ccc12)[C@H]1CC[C@H](CS(=O)(=O)N[C@H]2C[C@@H]2c2ccccc2)CC1 [Example 32, 1-{trans-4-[methyl(7H-pyrrolo[2,3-d]pyrimidin-4-yl)amino]cyclohexyl}-N-[(1S,2R)-2-phenylcyclopropyl]-methanesulfonamide]",144,23.6,4.34
"CN(Cc1cccc(N)n1)S(=O)(=O)C[C@H]1CC[C@H](N(C)c2ncnc3[nH]ccc23)CC1 [Example 29, N-[(6-aminopyridin-2-yl)methyl]-N-methyl-1-{trans-4-[methyl(7H-pyrrolo[2,3-d]pyrimidin-4-yl)amino]cyclohexyl}-methanesulfonamide]",514,51,16.7
"CN(c1ncnc2[nH]ccc12)[C@H]1CC[C@H](CS(=O)(=O)Nc2ccc3[nH]ncc3c2)CC1 [Example 26, N-1H-indazol-5-yl-1-{trans-4-[methyl(7H-pyrrolo[2,3-d]pyrimidin-4-yl)amino]-cyclohexyl}-methanesulfonamide]",175,39.4,19
"Cc1cnc(CNS(=O)(=O)C[C@H]2CC[C@H](N(C)c3ncnc4[nH]ccc34)CC2)cn1 [Example 45, N-[(5-methylpyrazin-2-yl)methyl]-1-{trans-4-[methyl(7H-pyrrolo[2,3-d]-pyrimidin-4-yl)amino]cyclohexyl}-methanesulfonamide]",490,49.7,15.3
"CN(C)S(=O)(=O)C[C@H]1CC[C@H](N(C)c2ncnc3[nH]ccc23)CC1 [Example 57, N,N-dimethyl((1r,4r)-4-(methyl(7H-pyrrolo[2,3-d]pyrimidin-4-yl)amino)-cyclohexyl)-methanesulfonamide]",174,27.5,7.33

# Other lines, results leading:
IC50 [1] [nM],IC50 [2] [nM],IC50 [3] [nM],Structure (SMILES)
87.8,12,2.87,"CN(c1ncnc2[nH]ccc12)[C@H]1CC[C@H](CS(=O)(=O)NCCc2ccccc2)CC1 [Example 15, 1-{trans-4-[methyl(7H-pyrrolo-[2,3-d]pyrimidin-4-yl)amino]-cyclohexyl}-N-(2-phenylethyl)-methanesulfonamide]"
257,28.6,2.25,"CN(c1ncnc2[nH]ccc12)[C@H]1CC[C@H](CS(=O)(=O)NCCc2ccc(O)cc2)CC1 [Example 3, N-[2-(4-hydroxyphenyl)-ethyl]-1-{trans-4-[methyl-(7H-pyrrolo[2,3-d]pyrimidin-4-yl)amino]cyclohexyl}-methanesulfonamide]"
188,17,3.78,"COc1ccccc1CCNS(=O)(=O)C[C@H]1CC[C@H](N(C)c2ncnc3[nH]ccc23)CC1 [Example 5, N-[2-(2-methoxyphenyl)-ethyl]-1-{trans-4-[methyl-(7H-pyrrolo[2,3-d]pyrimidin-4-yl)amino]cyclohexyl}-methanesulfonamide]"
208,29.8,10.7,"COc1ccccc1CCCNS(=O)(=O)C[C@H]1CC[C@H](N(C)c2ncnc3[nH]ccc23)CC1 [Example 40, N-[3-(2-methoxyphenyl)-propyl]-1-{trans-4-[methyl(7H-pyrrolo[2,3-d]-pyrimidin-4-yl)amino]-cyclohexyl}-methanesulfonamide]"
162,54.2,19.3,"CN(c1ncnc2[nH]ccc12)[C@H]1CC[C@@H](CS(=O)(=O)NCc2ccccc2)CC1 [Example 54, N-benzyl-1-{cis-4-[methyl(7H-pyrrolo[2,3-d]pyrimidin-4-yl)amino]cyclohexyl}-methanesulfonamide]"
148,20.5,4.65,"CN(c1ncnc2[nH]ccc12)[C@H]1CC[C@H](CS(=O)(=O)NCCc2ccccc2F)CC1 [Example 14, N-[2-(2-fluorophenyl)ethyl]-1-{trans-4-[methyl(7H-pyrrolo[2,3-d]pyrimidin-4-yl)amino]cyclohexyl}methanesulfonamide]"
511,55.5,16.5,"CN(c1ncnc2[nH]ccc12)[C@H]1CC[C@H](CS(=O)(=O)NCCc2ccc(C(F)(F)F)cc2)CC1 [Example 12, 1-{trans-4-[methyl(7H-pyrrolo[2,3-d]pyrimidin-4-yl)amino]cyclohexyl}-N-{2-[4-(trifluoromethyl)-phenyl]ethyl}-methanesulfonamide]"
